Reference: patent US20220378923A1, “BET DEGRADER” (KYOWA KIRIN CO., LTD., priority 2019, published 2022)

Molecular target: T1, interaction between BRD2 and E3 ligase DCAF16 (Homo sapiens, UniProt P25440)
T1 construct: expressed in transfected cells; host or cells: HEK293
Experiment: Verification of BET-DCAF16 interaction, comparative test with known compounds (Test Example 8)
Assay type: cell-based
Conditions: test compound 1.0 μmol/L; HEK293 cells expressing Nluc-BRD2 and DCAF16-HaloTag; MLN4924 instead of bortezomib; substrate diluted 200-fold
Protocol: Cultured HEK293 cells were washed with DPBS, no calcium, no magnesium (DPBS: Code No. 14190144, Thermo Fisher Scientific) and harvested using TrypLE™ Express Enzyme (1×), phenol red (TrypLE: Code No. 12605036, Thermo Fisher Scientific), and prepared to be 4.0×10^5 cells/mL in DMEM. A volume of 12 mL of the cell suspension was seeded in a Falcon® 100 mm×20 mm cell culture dish and cultured in a carbon dioxide gas incubator at 37° C. for 6 hours. For one dish, 12 μg of pFC27K_DCAF16, 0.12 μg of p FN31A_BRD2, 48 μL of FuGENE® HD Transfection Reagent (Code No. E2312, Promega) were added to 600 μL of Opti-MEM™ I Reduced Serum Medium, no phenol red (Opti-MEM: Code No. 11058021, Thermo Fisher Scientific) and mixed. The mixture was allowed to stand for 15 minutes and added to HEK293 cells. After 20 hours, the cells were washed with DPBS, no calcium, no magnesium, harvested from the dish using TrypLE, and then neutralized in DMEM. After centrifugation, the supernatant was discarded, and the cells were prepared to be 2.2×10^5 cells/mL using Opti-MEM containing 4% FBS. HaloTag® NanoBRET™ 618 Ligand contained in NanoBRET™ Nano-Glo® Detection System (Code No. N1662, Promega) and bortezomib as a proteasome inhibitor were added to be a 1000-fold dilution. In addition, a group was prepared to which DMSO was added instead of HaloTag® NanoBRET™ 618 Ligand. 90 μL of the cell suspension was seeded in CulturPlate-96 (Code No. 6005688, PerkinElmer), and allowed to stand in a carbon dioxide gas incubator at 37° C. for 30 minutes. A volume of 10 mmol/L of a solution of the test compound in DMSO was adjusted to be 100 μmol/L with Opti-MEM, 10 μL of the solution was added to each well, and then the mixture was allowed to stand in a carbon dioxide gas incubator at 37° C. for 2 hours. At this time, all the groups were prepared so that the final concentration of DMSO was 0.1 vol % including the group to which the test compound was not added. NanoBRET™ Nano-Glo® Substrate included in the NanoBRET™ Nano-Glo® Detection System was diluted 100-fold with Opti-MEM. After adding 25 μL of the dilution each and stirring for 30 seconds, measurement was performed with an Emission Filter of 460 nm and 620 nm using EnVision (PerkinElmer). The BRET ratio of 10 μmol/L for each test compound was calculated using the following formula. The experiment was performed by n=3 and the average value was calculated.
BRET ratio={(A/B)−(C/D)}×1000 • A: value at 620 nm filter of the well with addition of test compound and 618 Ligand • B: value at 460 nm filter of the well with addition of test compound and 618 Ligand • C: value at 620 nm filter of the well without addition of test compound or 618 Ligand • D: value at 460 nm filter of the well without addition of test compound or 618 Ligand
For comparison with the known comparative compound 1, the enhancement of the BET-DCAF16 interaction was verified by the same method as in test example 7. However, for the purpose of system optimization, bortezomib was changed to Neddylation inhibitor MLN4924 (Code No. HY-10484, MedChem Express), and the dilution ratio of NanoBRET™ Nano-Glo® Substrate was set to 200-fold. The BRET ratio of 1.0 μmol/L of each test compound was calculated, and the results are shown as in Table 23 below.

T1 sequence (P25440 whole entry): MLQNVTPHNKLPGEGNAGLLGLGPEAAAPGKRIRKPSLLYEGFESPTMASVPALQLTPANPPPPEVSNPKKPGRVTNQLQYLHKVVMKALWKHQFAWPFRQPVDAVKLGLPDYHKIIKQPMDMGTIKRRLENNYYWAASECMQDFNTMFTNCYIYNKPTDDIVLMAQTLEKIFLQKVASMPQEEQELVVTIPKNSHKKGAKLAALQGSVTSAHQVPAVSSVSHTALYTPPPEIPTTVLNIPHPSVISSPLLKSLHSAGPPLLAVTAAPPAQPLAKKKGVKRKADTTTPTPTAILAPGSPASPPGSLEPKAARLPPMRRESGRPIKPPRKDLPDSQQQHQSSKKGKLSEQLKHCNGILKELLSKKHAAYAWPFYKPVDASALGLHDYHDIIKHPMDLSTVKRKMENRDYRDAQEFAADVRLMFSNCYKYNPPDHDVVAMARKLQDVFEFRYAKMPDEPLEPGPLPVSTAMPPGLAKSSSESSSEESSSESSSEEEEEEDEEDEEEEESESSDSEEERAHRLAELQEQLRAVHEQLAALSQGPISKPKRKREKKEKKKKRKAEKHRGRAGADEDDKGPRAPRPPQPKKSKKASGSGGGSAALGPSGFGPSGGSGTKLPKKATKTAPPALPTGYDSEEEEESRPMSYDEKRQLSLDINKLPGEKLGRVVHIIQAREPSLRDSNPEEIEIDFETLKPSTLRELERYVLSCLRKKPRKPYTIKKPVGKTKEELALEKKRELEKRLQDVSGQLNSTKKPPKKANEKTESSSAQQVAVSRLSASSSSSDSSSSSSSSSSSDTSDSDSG
T1 sequence (Q9NXF7 whole entry partner): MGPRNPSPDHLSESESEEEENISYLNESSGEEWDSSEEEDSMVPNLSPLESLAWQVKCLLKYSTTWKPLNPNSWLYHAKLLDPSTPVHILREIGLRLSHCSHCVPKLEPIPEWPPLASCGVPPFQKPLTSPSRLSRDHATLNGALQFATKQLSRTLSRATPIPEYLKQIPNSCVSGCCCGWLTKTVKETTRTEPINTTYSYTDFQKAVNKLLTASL

Compound | BRET Ratio
CCC(=O)N1c2ccccc2[C@H](Nc2ccc(C(=O)NCc3cn(-c4ccc(N[C@@H]5C[C@H](C)N(C(=O)CC)c6ccccc65)cc4)nn3)cc2)C[C@@H]1C [Compound 3a, 4-{[(2S,4R)-2-Methyl-1-propionyl-1,2,3,4-tetrahydroquinolin-4-yl]amino}-N-{[1-(4-{[(2S,4R)-2-methyl-1-propionyl-1,2,3,4-tetrahydroquinolin-4-yl]amino}phenyl)-1H-1,2,3-triazol-4-yl]methyl}benzamide] | 14.46
Cc1sc2c(c1C)C(c1ccc(C(=O)NCc3cn(-c4ccc(C5=N[C@@H](CC(=O)OC(C)(C)C)c6nnc(C)n6-c6sc(C)c(C)c65)cc4)nn3)cc1)=N[C@@H](CC(=O)OC(C)(C)C)c1nnc(C)n1-2 [Compound 3b, tert-Butyl 2-[(S)-4-(4-{4-[(4-{(S)-6-[2-(tert-butoxy)-2-oxoethyl]-2,3,9-trimethyl-6H-thieno[3,2-f][1,2,4]triazolo[4,3-a][1,4]diazepin-4-yl}benzamide)methyl]-1H-1,2,3-triazol-1-yl}phenyl)-2,3,9-trimethyl-6H-thieno[3,2-f][1,2,4]triazolo[4,3-a][1,4]diazepin-6-yl]acetate] | 9.69
CCC(=O)N1c2ccccc2[C@H](Nc2ccc(NC(=O)CCCC(=O)Nc3ccc(N[C@@H]4C[C@H](C)N(C(=O)CC)c5ccccc54)cc3)cc2)C[C@@H]1C [Compound 6k, N^1,N^5-Bis(4-(((2S,4R)-2-methyl-1-propionyl-1,2,3,4-tetrahydroquinolin-4-yl)amino)phenyl)glutaramide] | 12.62
CCC(=O)N1c2ccccc2[C@H](Nc2ccc(-n3cc(CNC(=O)c4ccc(Cn5c(CC)cc6c5CCCC6=O)cc4)nn3)cc2)C[C@@H]1C [Compound 15f, 4-((2-Ethyl-4-oxo-4,5,6,7-tetrahydro-1H-indol-1-yl)methyl)-N-((1-(4-(((2S,4R)-2-methyl-1-propionyl-1,2,3,4-tetrahydroquinolin-4-yl)amino)phenyl)-1H-1,2,3-triazol-4-yl)methyl)benzamide] | 12.43
CCC(=O)N1c2ccccc2[C@H](Nc2ccc(NC(=O)CCCC(=O)NC3CCC(N[C@@H]4C[C@H](C)N(C(=O)CC)c5ccccc54)CC3)cc2)C[C@@H]1C (stereo partly drawn) [Compound 7o, N^1-((1R,4r)-4-(((2S,4R)-2-Methyl-1-propionyl-1,2,3,4-tetrahydroquinolin-4-yl)amino)cyclohexyl)-N^5-(4-(((2S,4R)-2-methyl-1-propionyl-1,2,3,4-tetrahydroquinolin-4-yl)amino)phenyl)glutaramide] | 13.00
CCC(=O)N1c2ccccc2[C@H](Nc2ccc(C(=O)NCC(=O)CNC(=O)c3ccc(N[C@@H]4C[C@H](C)N(C(=O)CC)c5ccccc54)cc3)cc2)C[C@@H]1C [Compound 1l, N,N′-(2-Oxopropane-1,3-diyl)bis(4-{[(2S,4R)-2-methyl-1-propionyl-1,2,3,4-tetrahydroquinolin-4-yl]amino}benzamide)] | 14.93
CCC(=O)N1c2ccccc2[C@H](Nc2ccc(C(=O)NCCCNC(=O)c3ccc(C4=N[C@@H](CC(=O)OC(C)(C)C)c5nnc(C)n5-c5sc(C)c(C)c54)cc3)cc2)C[C@@H]1C [Compound 1h, tert-Butyl 2-[(S)-2,3,9-trimethyl-4-(4-{[3-(4-{[(2S,4R)-2-methyl-1-propionyl-1,2,3,4-tetrahydroquinolin-4-yl]amino}benzamide)propyl]carbamoyl}phenyl)-6H-thieno[3,2-f][1,2,4]triazolo[4,3-a][1,4]diazepin-6-yl]acetate] | 10.95
CCC(=O)N1c2ccccc2[C@H](Nc2ccc(NC(=O)N3CCN(C(=O)C4CCC(N[C@@H]5C[C@H](C)N(C(=O)CC)c6ccccc65)CC4)CC3)cc2)C[C@@H]1C (stereo partly drawn) [Compound 7p, 4-((1R,4r)-4-(((2S,4R)-2-Methyl-1-propionyl-1,2,3,4-tetrahydroquinolin-4-yl)amino)cyclohexane-1-carbonyl)-N-(4-(((2S,4R)-2-methyl-1-propionyl-1,2,3,4-tetrahydroquinolin-4-yl)amino)phenyl)piperazine-1-carboxamide] | 11.57
CCC(=O)N1c2ccccc2[C@H](Nc2ccc(NC(=O)CCCC(=O)NC3CCN(Cc4cc(O)cc(-c5c(C)noc5C)c4)CC3)cc2)C[C@@H]1C [Compound 12c, N^1-(1-(3-(3,5-Dimethylisoxazol-4-yl)-5-hydroxybenzyl)piperidin-4-yl)-N^5-(4-(((2S,4R)-2-methyl-1-propionyl-1,2,3,4-tetrahydroquinolin-4-yl)amino)phenyl)glutaramide] | 13.16
CCC(=O)N1c2ccccc2[C@H](Nc2ccc(NC(=O)CCCC(=O)Nc3ccc(Cn4c(C(=O)OCCN(C)C)cc5c4CCCC5=O)cc3)cc2)C[C@@H]1C [Compound 15a, 2-(Dimethylamino)ethyl 1-(4-(5-((4-(((2S,4R)-2-methyl-1-propionyl-1,2,3,4-tetrahydroquinolin-4-yl)amino)phenyl)amino)-5-oxopentanamide)benzyl)-4-oxo-4,5,6,7-tetrahydro-1H-indole-2-carboxylate] | 9.59
CCC(=O)N1c2ccccc2[C@H](Nc2ccc(NC(=O)CNC(=O)N[C@H]3CC[C@H](N[C@@H]4C[C@H](C)N(C(=O)CC)c5ccccc54)CC3)cc2)C[C@@H]1C [Compound 8j, 2-(3-((1R,4R)-4-(((2S,4R)-2-Methyl-1-propionyl-1,2,3,4-tetrahydroquinolin-4-yl)amino)cyclohexyl)ureido)-N-(4-(((2S,4R)-2-methyl-1-propionyl-1,2,3,4-tetrahydroquinolin-4-yl)amino)phenyl)acetamide] | 11.91
CCC(=O)N1c2ccccc2[C@H](Nc2ccc(C(=O)N3CCn4c(-c5ccc(N[C@@H]6C[C@H](C)N(C(=O)CC)c7ccccc76)cc5)cnc4C3)cc2)C[C@@H]1C [Compound 3e, 1-[(2S,4R)-2-Methyl-4-({4-[3-(4-{[(2S,4R)-2-methyl-1-propionyl-1,2,3,4-tetrahydroquinolin-4-yl]amino}phenyl)-5,6,7,8-tetrahydroimidazo[1,2-a]pyrazine-7-carbonyl]phenyl}amino)-3,4-dihydroquinolin-1(2H)-yl]propan-1-one] | 9.58
CCNC(=O)C[C@@H]1N=C(c2ccc(SCCCCSc3ccc(C4=N[C@@H](CC(=O)NCC)c5nnc(C)n5-c5ccc(OC)cc54)cc3)cc2)c2cc(OC)ccc2-n2c(C)nnc21 [compound 1, 2,2′-((4S,4'S)-6,6′-((butane-1,4-diylbis(sulfanediyl))bis(4,1-phenylene))bis(8-methoxy-1-methyl-4H-benzo[f][1,2,4]triazolo[4,3-a][1,4]diazepine-6,4-diyl))bis(N-ethylacetamide), reference compound] | 1.93
CCC(=O)N1c2ccccc2[C@H](Nc2ccc(-n3cc(CCNC(=O)[C@H]4CC[C@H](N[C@@H]5C[C@H](C)N(C(=O)CC)c6ccccc65)CC4)nn3)cc2)C[C@@H]1C [Compound 8a, (1R,4r)-4-(((2S,4R)-2-Methyl-1-propionyl-1,2,3,4-tetrahydroquinolin-4-yl)amino)-N-(2-(1-(4-(((2S,4R)-2-methyl-1-propionyl-1,2,3,4-tetrahydroquinolin-4-yl)amino)phenyl)-1H-1,2,3-triazol-4-yl)ethyl)cyclohexane-1-carboxamide] | 12.45
